Source: PMC10388311, “Innovative Strategy toward Mutant CFTR Rescue in Cystic Fibrosis: Design and Synthesis of Thiadiazole Inhibitors of the E3 Ligase RNF5” (Journal of Medicinal Chemistry, 2023)

Target: F508del-CFTR in CFBE41o– cells (Homo sapiens, UniProt Q99942)
Test: CFTR immunoprecipitation and Western blot (CFTR expression and ubiquitylation)
Format: cell-based
Conditions: 24 h, 16 5 μM, VX-661 + VX-445 10 μM + 3 μM
Experimental: Finally, we evaluated ubiquitylation of mutant CFTR in CFBE41o^– cells following 24 h treatment with DMSO (vehicle), analogue 16, VX-661 + VX-445, and their combination. Subsequently, cells were treated for 4 h with DMSO alone or with MG-132 (10 μM; to block proteasomal degradation) and then lysed. Cell lysates were immunoprecipitated using an anti-CFTR antibody and then subjected to SDS-PAGE followed by Western blotting to evaluate CFTR expression and ubiquitylation status (Figure 9C–F). […] In brief, cells were lysed and, after centrifugation, the protein concentration in the supernatant was calculated using the BCA assay (Euroclone, Pero (MI), Italy) following supplier’s instructions An aliquot of supernatant corresponding to 600 μg of protein was incubated for 1 h with 2 μg/sample of rabbit polyclonal anti-CFTR antibody (Alomone Labs, Jerusalem, Israel), with rocking at room temperature (RT). […] Equal amounts of IP products were analyzed by Western blotting (20 μL). […] In brief, equal amounts of lysates (25 μg) or IP products (20 μL) were separated onto gradient 4–15% Criterion TGX Precast gels (Bio-rad laboratories Inc.), transferred to a nitrocellulose membrane with a Trans-Blot Turbo system (Bio-rad Laboratories Inc.), and analyzed by Western blotting. […]

Sequence of F508del-CFTR in CFBE41o– cells (Q99942 2-180): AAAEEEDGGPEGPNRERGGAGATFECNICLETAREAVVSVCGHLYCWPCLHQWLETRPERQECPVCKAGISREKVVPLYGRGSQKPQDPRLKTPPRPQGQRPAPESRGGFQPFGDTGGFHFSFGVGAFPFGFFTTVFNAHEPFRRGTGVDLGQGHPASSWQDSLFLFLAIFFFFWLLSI
Sequence of F508del-CFTR in CFBE41o– cells (P13569 with tags, fused parts or gaps DEL508-508 partner): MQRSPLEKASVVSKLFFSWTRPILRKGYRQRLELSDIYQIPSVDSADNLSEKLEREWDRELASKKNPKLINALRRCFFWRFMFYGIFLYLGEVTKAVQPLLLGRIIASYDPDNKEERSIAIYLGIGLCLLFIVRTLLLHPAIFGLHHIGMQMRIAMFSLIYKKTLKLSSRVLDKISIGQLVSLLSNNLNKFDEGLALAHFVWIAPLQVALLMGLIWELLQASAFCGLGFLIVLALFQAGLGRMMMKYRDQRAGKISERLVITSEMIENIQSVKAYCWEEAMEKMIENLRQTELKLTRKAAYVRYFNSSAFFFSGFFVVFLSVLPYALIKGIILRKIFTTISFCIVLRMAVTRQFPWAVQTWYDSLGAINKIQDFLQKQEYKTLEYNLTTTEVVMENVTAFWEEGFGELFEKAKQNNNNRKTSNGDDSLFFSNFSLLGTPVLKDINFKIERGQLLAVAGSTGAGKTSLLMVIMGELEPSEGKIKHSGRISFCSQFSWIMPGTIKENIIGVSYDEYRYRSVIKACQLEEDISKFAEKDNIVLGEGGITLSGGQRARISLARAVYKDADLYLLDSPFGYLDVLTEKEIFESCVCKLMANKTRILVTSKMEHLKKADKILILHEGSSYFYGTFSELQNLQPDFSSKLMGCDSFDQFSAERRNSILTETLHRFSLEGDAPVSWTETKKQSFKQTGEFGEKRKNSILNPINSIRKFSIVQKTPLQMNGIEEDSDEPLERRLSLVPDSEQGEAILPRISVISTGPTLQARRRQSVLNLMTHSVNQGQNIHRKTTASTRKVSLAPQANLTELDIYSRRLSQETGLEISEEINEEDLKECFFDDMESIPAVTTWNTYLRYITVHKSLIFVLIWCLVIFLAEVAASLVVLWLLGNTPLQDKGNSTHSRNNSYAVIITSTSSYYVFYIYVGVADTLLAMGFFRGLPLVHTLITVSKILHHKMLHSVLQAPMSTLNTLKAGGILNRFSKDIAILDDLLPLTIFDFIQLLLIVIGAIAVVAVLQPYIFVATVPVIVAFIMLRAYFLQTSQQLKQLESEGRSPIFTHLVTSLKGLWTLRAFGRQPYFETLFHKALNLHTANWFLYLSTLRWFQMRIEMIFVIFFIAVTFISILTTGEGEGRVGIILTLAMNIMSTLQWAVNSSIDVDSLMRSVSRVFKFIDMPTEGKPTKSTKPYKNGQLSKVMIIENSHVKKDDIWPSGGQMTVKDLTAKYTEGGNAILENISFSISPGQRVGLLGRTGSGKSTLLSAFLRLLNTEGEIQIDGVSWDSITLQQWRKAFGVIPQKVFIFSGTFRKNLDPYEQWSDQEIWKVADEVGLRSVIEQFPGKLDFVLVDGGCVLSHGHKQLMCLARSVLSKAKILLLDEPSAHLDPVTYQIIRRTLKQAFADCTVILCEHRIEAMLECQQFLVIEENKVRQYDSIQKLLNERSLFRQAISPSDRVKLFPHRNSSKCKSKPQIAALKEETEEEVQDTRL

Compound: COc1cccc(Cn2c(C)ns/c2=N\C(=N\c2ccccc2)c2ccccc2)c1 [Compound 16, (E)-N-((Z)-4-(3-Methoxybenzyl)-3-methyl-1,2,4-thiadiazol-5(4H)-ylidene)-N′-phenylbenzimidamide]
- rescue of mutant CFTR (mature form, band C): very modest
